Assay results as given in the CATMoS acute toxicity set (Mansouri et al. 2021).

Assay: GHS categories as the set defines them, by LD50: 1 up to 5, 2 up to 50, 3 up to 300, 4 up to 2000, 5 above 2000 mg/kg
Conditions: rat; in vivo; po

SMILES | GHS category
CCCCC(CC)COC(=O)C(C#N)=C(c1ccccc1)c1ccccc1 (stereo not drawn) | 5
CCCCCCCCCCCCCCCC[Si](OC)(OC)OC | 5
CC1(C)CC2(CC(C)(C)N1)OC1(CCCCCCCCCCC1)NC2=O | 5
ClC(=Nc1c(Cl)c(Cl)c(Cl)c(Cl)c1Cl)C(Cl)(Cl)Cl | 4
CC(C)CCCCCCCOC(=O)CCCCCCCC(=O)OCCCCCCCC(C)C | 5
CC(O)C1=CCC(C(C)(C)O)CC1O (stereo not drawn) | 5
CC(=O)OCCC(C)CCCC(C)C (stereo not drawn) | 5
CCCCCCCCCCCCCCCCCC(=O)OC(CO)COC(=O)CCCCCCCCCCCCCCC (stereo not drawn) | 5
Nc1cccc2c(S(=O)(=O)O)cccc12 | 5
CCOC(=O)C(=O)Nc1cc(OC)nc(-c2ccccc2)n1 | 4
CNc1ccc(C(=O)c2ccc(Cl)cc2)cc1O | 5
O=C1c2c(Br)c(Br)c(Br)c(Br)c2C(=O)N1CCN1C(=O)c2c(Br)c(Br)c(Br)c(Br)c2C1=O | 5
CCN(C(=O)CCCSc1nnnn1C)c1ccccn1 | 4
CCCCC1COCC(C)C1OC(C)=O (stereo not drawn) | 5
COCOC1CCCCCCCCCCC1 | 5
CCCc1c(Cc2ccc(-c3ccccc3-c3nn[nH]n3)cc2)c(=O)nc2nc(CO)[nH]n12 | 4
CCCCCCCC/C=C\CCCCCCCCCCCC(N)=O | 5
CNc1ccc(Cl)cc1C(=O)c1ccccc1Cl | 5
FC(F)(F)c1cccc(-n2nc(OCCN3CCCCC3)c3cccnc32)c1 | 4
S=P(Oc1ccccc1)(Oc1ccccc1)Oc1ccccc1 | 5
CC#Cc1cc(C)nc(Nc2ccccc2)n1 | 5

SMILES | GHS category
CC(C)(C)C(=O)OCC(=O)c1ccccc1 | 5
COCC1=C(C(=O)OC(C)OC(=O)OC(C)C)N2C(=O)[C@@H](NC(=O)/C(=N\OC)c3csc(N)n3)[C@H]2SC1 (stereo partly drawn) | 5
CCN(C(=O)SCc1ccccc1)C(C)C(C)C (stereo not drawn) | 5
COc1cc(C(=O)OCc2cccc(COC(=O)c3cc(OC)c(OC)c(OC)c3)n2)cc(OC)c1OC | 5
Oc1ccc2c(c1)CCN(c1ccccc1)C2c1ccc(F)cc1 (stereo not drawn) | 4
COC(=O)C(C)O (stereo not drawn) | 5
C=C(C)C1CCC(C)C(O)C1 (stereo not drawn) | 5
CC(C)S | 5
CC(C)C1=CC23CCC4C(C)(C(=O)N5CCOCC5)CCCC4(C)C2CC1C1C(=O)OC(=O)C13 (stereo not drawn) | 5
CC(=O)c1ccc2c(c1)OCC(=O)N2C | 5
Nc1cc(Cl)nc(C(=O)O)c1Cl | 5
CCc1ccc(OCC=C(C)CCC2OC2(C)C)cc1 (stereo not drawn) | 5
CCCCCBr | 5
Nc1cc(C(=O)NCC(O)CO)cc(C(=O)NCC(O)CO)c1 (stereo not drawn) | 5
COc1ccc2c(c1)CCN(c1ccccc1)C2c1ccc(F)cc1 (stereo not drawn) | 4
Cc1ccc(C(=O)Nc2ccc(S(=O)(=O)O)cc2)cc1[N+](=O)[O-] | 5
Cc1ccnc(N)c1 | 4
CCCCCCCC(=O)OOC(C)(C)C | 5
CN(CCNCc1cc(C(C)(C)C)cc(Br)c1O)CCNC(=O)c1nc(Cl)c(N)nc1N | 4
Cn1c(N)cc(=O)n(C)c1=O | 5
CC(C=O)C(=O)c1ccc(C2CCCCC2)cc1 (stereo not drawn) | 4

SMILES | GHS category
CC[C@H]1C[C@H]2[C@@H]3CCC4=CC(=O)CC[C@@H]4[C@H]3CC[C@]2(C)[C@H]1OC(C)=O | 5
CCCCCCOC(=O)C(C)(C)C | 5
CCCCCCCCCCCCCOC(=O)CCCCC(=O)OCCCCCCCCCCCCC | 5
CC[C@H](C)[C@@H]1NC(=O)[C@H](Cc2ccc(O)cc2)NC(=O)[C@@H](N)CSSC[C@@H](C(=O)N2CCC[C@H]2C(=O)N[C@@H](CC(C)C)C(=O)NCC(N)=O)NC(=O)[C@H](CC(N)=O)NC(=O)[C@H](CCC(N)=O)NC1=O | 2
OCC(O)COc1nn(Cc2ccccc2)c2ccccc12 (stereo not drawn) | 5
CC1=NN(c2cccc(S(=O)(=O)O)c2)C(=O)C1 | 5
O=C(O)[C@H](O)[C@H](O)[C@@H](O)[C@H](O)[C@H](O)CO | 5
COC(=O)N(OC)c1ccccc1COc1ccn(-c2ccc(Cl)cc2)n1 | 5
COC(=O)c1ccc(CNS(C)(=O)=O)cc1S(=O)(=O)NC(=O)Nc1nc(OC)cc(OC)n1 | 5
C=C1CC[C@H]2O[C@]2(C)CC[C@@H]2[C@@H]1CC2(C)C | 5
C=COCC1CCC(COC=C)CC1 (stereo not drawn) | 5
CN(C)[C@@H]1C(O)=C(C(N)=O)C(=O)[C@@]2(O)C(O)=C3C(=O)c4c(O)ccc(Cl)c4[C@@H](O)[C@H]3C[C@@H]12 | 5
CC(C)N1CCN(C(=O)c2ccc(OC(=O)C3CCCc4ccccc43)cc2)CC1 (stereo not drawn) | 5
COc1ccc2c(c1)CCN(c1ccccc1)C2c1ccc(OCCN2CCCCC2)cc1 (stereo not drawn) | 4
CNc1ncnc2c1ncn2Cc1ccccc1F | 4
O=C(O)C(=O)Nc1cccc(-c2nnn[nH]2)c1 | 5
COc1ccccc1N1CCN(CC(O)COc2cccc3ccccc23)CC1 (stereo not drawn) | 5
Cc1cc(C2(c3ccc(O)cc3)NC(=O)NC2=O)ccc1O (stereo not drawn) | 5
Cc1cc(C(C)(C)C)c(O)c(C)c1Cn1c(=O)n(Cc2c(C)cc(C(C)(C)C)c(O)c2C)c(=O)n(Cc2c(C)cc(C(C)(C)C)c(O)c2C)c1=O | 5
Nc1nnc(-c2cc(Cl)ccc2Cl)c(N)n1 | 4
CCCCCCCCOc1ccccc1C(=O)Nc1ccc(C(=O)OCC[N+](C)(CC)CC)cc1 | 4

SMILES | GHS category
CC(C)(c1ccc(OCCO)cc1)c1ccc(OCCO)cc1 | 5
CC(=O)OC1CCCCC1C (stereo not drawn) | 5
Nc1ccc(OS(=O)(=O)O)c(C(=O)O)c1 | 5
COc1cc(C(=O)OCCCN2CCCN(CCCOC(=O)c3cc(OC)c(OC)c(OC)c3)CC2)cc(OC)c1OC | 5
CCS(=O)(=O)c1nc2ccccn2c1S(=O)(=O)NC(=O)Nc1nc(OC)cc(OC)n1 | 5
CN(C)C1C(=O)C(=C(O)NCN2CCCC2C(=O)O)C(=O)C2(O)C(=O)C3=C(O)c4c(O)cccc4C(C)(O)C3CC12 (stereo not drawn) | 5
CCCc1nc2ncnn2c(CCC)c1Cc1ccc(-c2ccccc2-c2nn[nH]n2)cc1 | 4
Cc1cc(NC(=O)C2=C(O)c3ccccc3S(=O)(=O)N2C)no1 | 5
CCCC(=O)OCC(C)C | 5
Cn1c(=O)oc2cc(C(=O)c3cccs3)ccc21 | 5
COC(=O)c1cc(Oc2ccc(C(=O)OC)cc2N)cc(C(=O)OC)c1 | 5
CCCCCCCCCCC[C@@H]1C[C@H](O)[C@H](CCCCCC)C(=O)O1 | 5
CCCCCCCCCC(OC)OC | 5
O=C(O)c1c(Cl)c(Cl)c(C(=O)O)c(Cl)c1Cl | 5
Cc1nc2cc(Cl)ccc2o1 | 4
CCCc1c(Cc2ccc(-c3ccccc3-c3nn[nH]n3)cc2)c(=O)nc2nc(N(CC)CC)[nH]n12 | 4
Cn1c(N)c(NC=O)c(=O)n(C)c1=O | 5
CCCCCCOC(=O)CCC | 5
OCC(O)C1OC(c2ccco2)OC(CO)C1O (stereo not drawn) | 5
CC1CCC2(OC1)OC1CC3C4CC=C5CC(O)CCC5(C)C4CCC3(C)C1C2C (stereo not drawn) | 5
